# In patent US20220096529A1, “2-HYDROXYPROPYL-BETA-CYCLODEXTRIN (HPBETACD) FOR USE IN THE TREATMENT OF BREAST CANCER” (UNIVERSITY OF THE WITWATERSRAND, JOHANNESBURG, priority 2019, published 2022):
# How the values were obtained:
# Format in all cases: cell-based, human
# [1] = test system: MDA-MB-231 cells; assay: Mitochondrial outer membrane potential assay (MOMP); conditions: MDA-MB-231, 10 mM, 24 hrs
# Experimental: (§1) One of the key hallmarks of apoptosis is the loss of mitochondrial membrane potential. To investigate that aspect we did a MOMP assay which validates our Cell-APOPercentage assay. This assay was tested on three cell lines MCF7, MDA-MB-231 & MRC-5. The top right and bottom hand quadrants of each plot represents healthy (FL2-A) and apoptotic (FL1-A) cells respectively (see FIGS. 13 to 15).
# (§2) From the results obtained from MTT (IC50 values) and Cell-APOPercentage assays it was quite evident that ˜10 mM HPβCD caused cellular growth inhibition through apoptosis in cancer cells and had little or no effect in normal cells. Therefore, we selected just 10 mM HPβCD going forward as the only working concentration for HPβCD treatment. 24 hrs time point was selected (HPβCD & 10 mM H2O2) because mitochondrial membrane potential loss is an early cellular event.
# [2] = test system: MCF7 cells; assay: as above; conditions: MCF7, 10 mM, 24 hrs
# Experimental: as §1, §2
# [3] = test system: MDA-MB-231 cells; assay: ROS assay; conditions: MDA-MB-231, 10 mM, 24 hrs
# Experimental: (§3) To further validate the occurrence of apoptosis and to investigate the exact mechanisms if apoptosis, a ROS assay was conducted to capture the production of ROS. […] In order to be in solidarity with this fact, a ROS assay was performed in three cell lines: MCF7, MDA-MB-231 & MRC-5. Like before, HPβCD and the positive (10 mM H2O2) were treated for 24 hrs. The right hand section in each plot represents the production of ROS.
# [4] = test system: MCF7 cells; assay: ROS assay; conditions: MCF7, 10 mM, 24 hrs
# Experimental: as §3
# [5] = test system: MRC-5 cells; assay: ROS assay; conditions: MRC-5, 10 mM, 24 hrs
# Experimental: as §3
# [6] = test system: MDA-MB-231 cells; assay: Caspase 3/7 assay; conditions: MDA-MB-231, 40 μM Plumbagin, 24 hrs
# Experimental: (§4) The final step in apoptosis following the intrinsic pathway is the activation of executioner caspases like caspase 3 and caspase 7 […]. Therefore, to confirm that cell death was due to the mitochondrial mediated pathway of apoptosis a Caspase 3/7 assay was conducted. Caspases are activated in response to a myriad of cellular death stimuli and they dismantle the cell. Caspase 3 and caspase 7 contribute to the majority of proteolytic cleavage occurring in apoptosis. As a final step to confirm and validate apoptosis via the mitochondrial intrinsic pathway, the Caspase 3/7 assay was conducted on three cell lines: MCF7, MDA-MB-231 & HEK-293. HPβCD and positive (40 μM PL) were treated for 24 hrs. The percentage of dead/apoptotic cells are clearly indicated in specific corners of each quadrants in the above plots.
# [7] = test system: HEK-293 cells; assay: Caspase 3/7 assay; conditions: HEK-293, 40 μM Plumbagin, 24 hrs
# Experimental: as §4
# [8] = test system: MCF7 cells; assay: Caspase 3/7 assay; conditions: MCF7, 40 μM Plumbagin, 24 hrs
# Experimental: as §4
# [9] = test system: MDA-MB-231 cells; assay: Cell-APOPercentage apoptosis assay; conditions: MDA-MB-231, 10 μM Plumbagin, 24 hrs
# Experimental: (§5) APOPercentage assays gives a measure of overall apoptosis in the cell. Apoptosis is an early event and therefore just one time point (24 hrs) was selected and tested on four cell lines MCF7, MDA-MB-231, MRC-5 & HEK-293 cells. 10 μM Plumbagin was used a positive control as opposed to 40 μM from MTT because higher concentrations of plumbagin was way too toxic for the cells and to capture the early activity, optimal dosage was required. To confirm the growth inhibition obtained from the MTT assay was actually due to apoptosis, a Cell-APOPercentage Apoptosis assay was performed according to known methods.
# [10] = test system: MCF7 cells; assay: Cell-APOPercentage apoptosis assay; conditions: MCF7, 10 μM Plumbagin, 24 hrs
# Experimental: as §5
# [11] = test system: MDA-MB-231 cells; assay: MTT growth inhibition assay; conditions: Homo sapiens, MDA-MB-231, 40 μM Plumbagin
# Experimental: (§6) Cells were cultured in appropriate medium supplemented with 10% FCS, penicillin (100 U/ml), and streptomycin (100 μg/ml) (Gibco) at 5% CO2 in a 37° C. incubator.
# (§7) Four different cell lines were used MCF7 (ER+). MDA-MB-231 (ER−), MRC-5 (Lung Fibroblasts) and HEK-293 (Embryonic kidney). MRC-5 and/or HEK-293 were used as control cell lines depending on availability.
# (§8) In order to determine whether HPβCD has the ability to induce cancer cell death a primary screening using an MTT assay was performed. Three different time points 24 hrs.
# [12] = test system: MCF7 cells; assay: MTT growth inhibition assay; conditions: Homo sapiens, MCF7, 40 μM Plumbagin
# Experimental: as §6, §7, §8
smiles,measurement,setting,value
"OO [H2O2, reference compound]",apoptotic cells / cell death (loss of mitochondrial membrane potential),[1],92.4%
same,apoptotic population (loss of mitochondrial membrane potential),[2],92.1%
same,ROS generation,[3],73%
same,ROS generation,[4],88.5%
same,ROS generation,[5],64.1%
"CC1=CC(=O)c2c(O)cccc2C1=O [Plumbagin, reference compound]",Total Apoptotic (caspase 3/7),[6],80.45%
same,Total Apoptotic (caspase 3/7),[7],72.40%
same,Total Apoptotic (caspase 3/7),[7]; listed as PL,72.4%
same,Total Apoptotic (caspase 3/7),[8],23.55%
same,apoptosis,[9],~90%
same,apoptosis,[10],~90%
same,inhibition at 40 µM,[11]; 24 hrs,~85%
same,inhibition at 40 µM,[11]; 48 hrs,~92%
same,inhibition at 40 µM,[11]; 72 hrs,~95%
same,inhibition at 40 µM,[12]; 24 hrs,~80%
same,inhibition at 40 µM,[12]; 48 hrs,~90%
same,inhibition at 40 µM,[12]; 72 hrs,~100%
